{"source": "patent US12685315B2", "about": "“Herbicidal combination” (UPL do Brasil Industria e Comercio de Insumos Agropecuarios …, priority 2019, dated 2026)", "type_in_all_cases": "in vivo", "key": {"[1]": {"tested_on": "Brachiaria decumbens (BRADC)", "assay": "Field trial of triple mixes of amicarbazone, pre and post-emergence weed control", "method": "(§1) Field trials were done to evaluate the efficacy and synergism of the triple mixes of amicarbazone with other herbicides for the control of weeds in pre and post-emergence application.\n(§2) The composition of the present invention was applied. This test was performed for species of weeds: Grasses namely BRADC=Brachiaria decumbens, CCHEC=Cenchrus echinatus, ELEIN=Eleusine indica, TRCIN=Digitaria insularis and Broadleaves namely IAQGR=Ipomoea grandifolia, EPHHL=Euphorbia heterophylla, COMBE=Commelina benghalensis. Data were collected at various period after application of the composition to the soil and calculated."}, "Eleusine indica": {"tested_on": "Eleusine indica", "assay": "Field trial of triple mixes of amicarbazone, pre and post-emergence weed control", "method": "as §1, §2"}, "[2]": {"tested_on": "Cenchrus echinatus (CCHEC)", "assay": "Field trial of triple mixes of amicarbazone, pre and post-emergence weed control", "method": "as §1, §2"}, "Digitaria insularis": {"tested_on": "Digitaria insularis", "assay": "Field trial of triple mixes of amicarbazone, post-emergence weed control", "conditions": "dose g ai/ha: Amicarbazone 75, S-metolachlor 300, Atrazine 250, mix 75 + 300 + 250", "method": "as §1, §2"}, "Commelina benghalensis": {"tested_on": "Commelina benghalensis", "assay": "Field trial of triple mixes of amicarbazone, pre-emergence weed control", "conditions": "dose g ai/ha: Amicarbazone 75, Mesotrione 38, Ametryn 250, mix AMC + AME + MST 75 + 38 + 250", "method": "as §1, §2"}, "Euphorbia heterophylla": {"tested_on": "Euphorbia heterophylla", "assay": "Field trial of triple mixes of amicarbazone, pre-emergence weed control", "conditions": "dose g ai/ha: Amicarbazone 250, Sulfentrazone 150, Diuron 250, mix 250 + 150 + 250", "method": "as §1, §2"}, "[3]": {"tested_on": "Ipomoea grandifolia (IAQGR)", "assay": "Field trial of triple mixes of amicarbazone, pre-emergence weed control", "method": "as §1, §2"}}, "data": [{"smiles": "CC(C)c1nn(C(=O)NC(C)(C)C)c(=O)n1N", "note": "[Amicarbazone]", "values": [{"measurement": "% Control", "setting": "[1]; Table 1, Post-Emergence, 7 DAA, dose g ai/ha: Amicarbazone 75, Isoxaflutole 15, Atrazine 250, mix 75 + 15 + 250", "result": 43.8, "unit": "%"}, {"measurement": "% Control", "setting": "[1]; Table 1, Post-Emergence, 21 DAA, dose g ai/ha: Amicarbazone 75, Isoxaflutole 15, Atrazine 250, mix 75 + 15 + 250", "result": 38.8, "unit": "%"}, {"measurement": "% Control", "setting": "[1]; Table 1, Post-Emergence, 28 DAA, dose g ai/ha: Amicarbazone 75, Isoxaflutole 15, Atrazine 250, mix 75 + 15 + 250", "result": 40.0, "unit": "%"}, {"measurement": "% Control", "setting": "[1]; Table 1, Pre-Emergence, 7 DAA, dose g ai/ha: Amicarbazone 75, Isoxaflutole 15, Atrazine 250, mix 75 + 15 + 250", "result": 0.0, "unit": "%"}, {"measurement": "% Control", "setting": "[1]; Table 1, Pre-Emergence, 21 DAA, dose g ai/ha: Amicarbazone 75, Isoxaflutole 15, Atrazine 250, mix 75 + 15 + 250", "result": 0.0, "unit": "%"}, {"measurement": "% Control", "setting": "[1]; Table 1, Pre-Emergence, 28 DAA, dose g ai/ha: Amicarbazone 75, Isoxaflutole 15, Atrazine 250, mix 75 + 15 + 250", "result": 0.0, "unit": "%"}, {"measurement": "% Control", "setting": "[1]; Table 5, Post-Emergence, 21 DAA, dose g ai/ha: Amicarbazone 250, Clomazone 250, Diuron 250, mix 250 + 250 + 250", "result": 25.0, "unit": "%"}, {"measurement": "% Control", "setting": "[1]; Table 5, Post-Emergence, 28 DAA, dose g ai/ha: Amicarbazone 250, Clomazone 250, Diuron 250, mix 250 + 250 + 250", "result": 16.3, "unit": "%"}, {"measurement": "% Control", "setting": "[1]; Table 5, Post-Emergence, 35 DAA, dose g ai/ha: Amicarbazone 250, Clomazone 250, Diuron 250, mix 250 + 250 + 250", "result": 13.8, "unit": "%"}, {"measurement": "% Control", "setting": "[1]; Table 5, Pre-Emergence, 21 DAA, dose g ai/ha: Amicarbazone 250, Clomazone 250, Diuron 250, mix 250 + 250 + 250", "result": 63.8, "unit": "%"}, {"measurement": "% Control", "setting": "[1]; Table 5, Pre-Emergence, 28 DAA, dose g ai/ha: Amicarbazone 250, Clomazone 250, Diuron 250, mix 250 + 250 + 250", "result": 50.0, "unit": "%"}, {"measurement": "% Control", "setting": "[1]; Table 5, Pre-Emergence, 35 DAA, dose g ai/ha: Amicarbazone 250, Clomazone 250, Diuron 250, mix 250 + 250 + 250", "result": 46.3, "unit": "%"}, {"measurement": "% Control", "setting": "Eleusine indica; Table 8, Post-Emergence, 14 DAA, dose g ai/ha: Amicarbazone 250, Sulfentrazone 150, Diuron 250, mix 250 + 150 + 250", "result": 13.8, "unit": "%"}, {"measurement": "% Control", "setting": "Eleusine indica; Table 8, Post-Emergence, 21 DAA, dose g ai/ha: Amicarbazone 250, Sulfentrazone 150, Diuron 250, mix 250 + 150 + 250", "result": 16.3, "unit": "%"}, {"measurement": "% Control", "setting": "Eleusine indica; Table 8, Post-Emergence, 28 DAA, dose g ai/ha: Amicarbazone 250, Sulfentrazone 150, Diuron 250, mix 250 + 150 + 250", "result": 13.8, "unit": "%"}, {"measurement": "% Control", "setting": "Eleusine indica; Table 8, Pre-Emergence, 14 DAA, dose g ai/ha: Amicarbazone 250, Sulfentrazone 150, Diuron 250, mix 250 + 150 + 250", "result": 68.8, "unit": "%"}, {"measurement": "% Control", "setting": "Eleusine indica; Table 8, Pre-Emergence, 21 DAA, dose g ai/ha: Amicarbazone 250, Sulfentrazone 150, Diuron 250, mix 250 + 150 + 250", "result": 92.0, "unit": "%"}, {"measurement": "% Control", "setting": "Eleusine indica; Table 8, Pre-Emergence, 28 DAA, dose g ai/ha: Amicarbazone 250, Sulfentrazone 150, Diuron 250, mix 250 + 150 + 250", "result": 87.0, "unit": "%"}, {"measurement": "% Control", "setting": "Eleusine indica; Table 10, Post-Emergence, 14 DAA, dose g ai/ha: Amicarbazone 75, Mesotrione 38, Ametryn 250, mix AMC + AME + MST 75 + 38 + 250", "result": 0.0, "unit": "%"}, {"measurement": "% Control", "setting": "Eleusine indica; Table 10, Post-Emergence, 21 DAA, dose g ai/ha: Amicarbazone 75, Mesotrione 38, Ametryn 250, mix AMC + AME + MST 75 + 38 + 250", "result": 0.0, "unit": "%"}, {"measurement": "% Control", "setting": "Eleusine indica; Table 10, Post-Emergence, 28 DAA, dose g ai/ha: Amicarbazone 75, Mesotrione 38, Ametryn 250, mix AMC + AME + MST 75 + 38 + 250", "result": 0.0, "unit": "%"}, {"measurement": "% Control", "setting": "Eleusine indica; Table 10, Pre-Emergence, 14 DAA, dose g ai/ha: Amicarbazone 75, Mesotrione 38, Ametryn 250, mix AMC + AME + MST 75 + 38 + 250", "result": 0.0, "unit": "%"}, {"measurement": "% Control", "setting": "Eleusine indica; Table 10, Pre-Emergence, 21 DAA, dose g ai/ha: Amicarbazone 75, Mesotrione 38, Ametryn 250, mix AMC + AME + MST 75 + 38 + 250", "result": 0.0, "unit": "%"}, {"measurement": "% Control", "setting": "Eleusine indica; Table 10, Pre-Emergence, 28 DAA, dose g ai/ha: Amicarbazone 75, Mesotrione 38, Ametryn 250, mix AMC + AME + MST 75 + 38 + 250", "result": 0.0, "unit": "%"}, {"measurement": "% Control", "setting": "[2]; Table 2, Post-Emergence, 7 DAA, dose g ai/ha: Amicarbazone 75, Isoxaflutole 15, Atrazine 250, mix 75 + 15 + 250", "result": 33.8, "unit": "%"}, {"measurement": "% Control", "setting": "[2]; Table 2, Post-Emergence, 28 DAA, dose g ai/ha: Amicarbazone 75, Isoxaflutole 15, Atrazine 250, mix 75 + 15 + 250", "result": 40.0, "unit": "%"}, {"measurement": "% Control", "setting": "[2]; Table 2, Post-Emergence, 35 DAA, dose g ai/ha: Amicarbazone 75, Isoxaflutole 15, Atrazine 250, mix 75 + 15 + 250", "result": 36.3, "unit": "%"}, {"measurement": "% Control", "setting": "[2]; Table 6, Post-Emergence, 21 DAA, dose g ai/ha: Amicarbazone 250, Sulfentrazone 150, Diuron 250, mix 250 + 150 + 250", "result": 0.0, "unit": "%"}, {"measurement": "% Control", "setting": "[2]; Table 6, Post-Emergence, 28 DAA, dose g ai/ha: Amicarbazone 250, Sulfentrazone 150, Diuron 250, mix 250 + 150 + 250", "result": 0.0, "unit": "%"}, {"measurement": "% Control", "setting": "[2]; Table 6, Post-Emergence, 35 DAA, dose g ai/ha: Amicarbazone 250, Sulfentrazone 150, Diuron 250, mix 250 + 150 + 250", "result": 0.0, "unit": "%"}, {"measurement": "% Control", "setting": "[2]; Table 6, Pre-Emergence, 21 DAA, dose g ai/ha: Amicarbazone 250, Sulfentrazone 150, Diuron 250, mix 250 + 150 + 250", "result": 7.5, "unit": "%"}, {"measurement": "% Control", "setting": "[2]; Table 6, Pre-Emergence, 28 DAA, dose g ai/ha: Amicarbazone 250, Sulfentrazone 150, Diuron 250, mix 250 + 150 + 250", "result": 5.0, "unit": "%"}, {"measurement": "% Control", "setting": "[2]; Table 6, Pre-Emergence, 35 DAA, dose g ai/ha: Amicarbazone 250, Sulfentrazone 150, Diuron 250, mix 250 + 150 + 250", "result": 3.3, "unit": "%"}, {"measurement": "% Control", "setting": "Digitaria insularis; Table 9, 21 DAA", "result": 7.5, "unit": "%"}, {"measurement": "% Control", "setting": "Digitaria insularis; Table 9, 28 DAA", "result": 1.3, "unit": "%"}, {"measurement": "% Control", "setting": "Digitaria insularis; Table 9, 35 DAA", "result": 0.5, "unit": "%"}, {"measurement": "% Control", "setting": "Commelina benghalensis; Table 11, 21 DAA", "result": 8.8, "unit": "%"}, {"measurement": "% Control", "setting": "Commelina benghalensis; Table 11, 28 DAA", "result": 7.3, "unit": "%"}, {"measurement": "% Control", "setting": "Commelina benghalensis; Table 11, 35 DAA", "result": 6.8, "unit": "%"}, {"measurement": "% Control", "setting": "Euphorbia heterophylla; Table 7, 7 DAA", "result": 3.8, "unit": "%"}, {"measurement": "% Control", "setting": "Euphorbia heterophylla; Table 7, 14 DAA", "result": 28.8, "unit": "%"}, {"measurement": "% Control", "setting": "Euphorbia heterophylla; Table 7, 21 DAA", "result": 56.3, "unit": "%"}, {"measurement": "% Control", "setting": "[3]; Table 3, 14 DAA, dose g ai/ha: Amicarbazone 75, Isoxaflutole 15, Atrazine 250, mix 75 + 15 + 250", "result": 11.3, "unit": "%"}, {"measurement": "% Control", "setting": "[3]; Table 3, 21 DAA, dose g ai/ha: Amicarbazone 75, Isoxaflutole 15, Atrazine 250, mix 75 + 15 + 250", "result": 0.0, "unit": "%"}, {"measurement": "% Control", "setting": "[3]; Table 3, 28 DAA, dose g ai/ha: Amicarbazone 75, Isoxaflutole 15, Atrazine 250, mix 75 + 15 + 250", "result": 0.0, "unit": "%"}, {"measurement": "% Control", "setting": "[3]; Table 4, 7 DAA, dose g ai/ha: Amicarbazone 250, Clomazone 250, Diuron 250, mix 250 + 250 + 250", "result": 18.8, "unit": "%"}, {"measurement": "% Control", "setting": "[3]; Table 4, 14 DAA, dose g ai/ha: Amicarbazone 250, Clomazone 250, Diuron 250, mix 250 + 250 + 250", "result": 73.8, "unit": "%"}, {"measurement": "% Control", "setting": "[3]; Table 4, 28 DAA, dose g ai/ha: Amicarbazone 250, Clomazone 250, Diuron 250, mix 250 + 250 + 250", "result": 86.5, "unit": "%"}]}]}
